Where no end group is shown, it is not given here. {C12NH2} = aliphatic C12 spacer ending in a primary amine, used to couple the probe to the polymer

The test system of data set [1] is Noncomplementary detection probe. The experiment in a line: Hybridization of biotinylated detection probe to coated polypropylene microwells (SA-HRP, A655). Type of data set: binding. The following applies: 50 fmole probe per well, n=3. Here is the method: (§1) The DNA-polymer was applied to microplate wells (polypropylene plates from Corning Costar Corporation, Cambridge, Mass.) at 10 pmole (in 0.1 ml solution) per well and incubated for 10-30 minutes. The plates containing DNA polymer solutions were illuminated for 1.5 minutes with a Dymax lamp as described herein except that a filter was used that removes light of wavelengths shorter than 300 nm. A control consisted of oligoDNA capture probe (10 pmole in 0.1 ml 50 mM phosphate buffer, pH 8.5, 1 mM EDTA) that was added to wells, allowed to adsorb for 2.5 hr., and not illuminated. The plates were washed with phosphate buffered saline containing 0.05% Tween 20 in PBS to remove unbound DNA-polymer or control oligoDNA capture probe. […]
(§2) The binding of each detection probe was assayed by subsequently adding a conjugate of streptavidin and horseradish peroxidase (SA-HRP, available from Pierce, Rockford, Ill.) and measuring the activity of the bound HRP. […] The plates were then washed with 0.05% Tween 20 in PBS, followed by addition of peroxidase substrate (TMB Microwell Peroxidase substrate system from Kirkegarrd and Perry Laboratories, Gaithersburg, Md.) and measurement of absorbance at 655 nm on a microplate reader (model 3550, Bio-Rad Labs, Cambridge, Mass.). Since the polypropylene plates were opaque, the reacted substrate solutions were transferred to polystyrene plates to read the absorbance.

Data set [2] relates to Complementary detection probe. Described as above. Type of data set: binding. The settings on record: 50 fmole probe per well, n=3. Here is the method:
as §1, §2

In data set [3] the target is T1, bovine thrombin (Bos taurus, UniProt P00735).
T1 construct: a known amount of bovine thrombin; purchased Sigma Chemical Co., St. Louis, Mo
The following applies: from Transgene Laboratories; cited from earlier work.

For data set [4], the target named is T1, bovine thrombin. The data set is described as follows: Activities of hirudin and hirudin polymer in solution (thrombin inhibition, Chromozym TH). Type of data set: biochemical. The following applies: per mg of hirudin. The procedure:
The specific activities of hirudin and hirudin polymer were determined by standard protocols provided by Transgene and are expressed as antithrombin units (ATU's) per mg of hirudin. One ATU is the amount of hirudin that is required to inhibit the proteolytic activity of one NIH unit of thrombin. For these assays, a known amount of bovine thrombin (175-350 NIH units/mg., from Sigma Chemical Co., St. Louis, Mo.) was preincubated with a series of dilutions of hirudin or hirudin polymer, and the remaining thrombin activity was determined with a chromogenic substrate, Chromozym TH (from Boehringer Mannheim Corp, Indianapolis, Ind.). The specific activities of hirudin assayed before and after incorporation into the hirudin polymer were 11,710 and 10,204 ATU/mg, respectively. Therefore incorporation of hirudin into the polymer produced only a 13% decrease in its activity.

Data set [5] deals with Staphylococcus epidermidis (ATCC No. 12228). Type of data set: cell-based. The settings on record: in solution. Here is the method: (§3) Magainin is a cationic peptide antibiotic that was originally isolated from the skin of Xenopus laevis. It is active against a broad spectrum of pathogens and acts at the surface of the pathogens. The activity of the magainin polymer was evaluated by a standard solution assay, which determined the minimum inhibitory concentration (MIC) of magainin polymer that was required to prevent the growth of bacteria.

Data set [6] has as its system Escherichia coli (ATCC No. 25922). Type of data set: cell-based. The following applies: in solution. Here is the method:
as §3

The conditions of data set [7]: as obtained from Celsus Laboratories; cited from earlier work.

For the substance “5′-GTCTGAGTCGGAGCCAGGGCGGCCGCCAACAGCAGGAGCA (DNA GTCTGAGTCGGAGCCAGGGCGGCCGCCAACAGCAGGAGCA; DNA, 5' {C12NH2}, backbone not given here; coupled via 5' amine to photoreactive NOS polymer) [oligo DNA capture probe]”, in data set [1], the “Hybridization Signals (A655), Noncomplementary detection probe” value was 0.033 ± 0.001. Further, the “Hybridization Signals (A655), Complementary detection probe” value in data set [2] is given as 0.037 ± 0.005.
As to hirudin, in the data set with bovine thrombin [3], the “activity of recombinant hirudin as obtained” value is recorded as 16,500±2000 ATU/mg. Besides, in the data set with bovine thrombin [4], the specific activity is listed as 11,710 ATU/mg.
One may read the MIC as the least concentration at which growth counts as inhibited. Read a low MIC as inhibition by little substance. For “magainin polymer: photoreactive polyacrylamide containing magainin ligand (SEQ ID NO:14) (GIGKFLHSAKKFGKAFVGEIMNSC; not fully specified (residue 24); printed as Gly Ile Gly Lys Phe Leu His Ser Ala Lys Lys Phe Gly Lys Ala Phe Val Gly Glu Ile Met Asn Ser Cys; also: in photoreactive polyacrylamide)”, the minimum inhibitory concentration (MIC) in data set [5] and in data set [6] was 50 µg/mL throughout.
Take heparin [Unbleached heparin]: the heparin activity in data set [7] is recorded as 152 units/mg.
